# Experimental data reported in patent US20110105441A1, “Stable Orally Disintegrating Tablets Having Low Superdisintegrant” (FMC CORPORATION, priority 2009, published 2011).
# Key:
# [1] = Dissolution of API from ODTs (USP 31 guidelines); assay type: physicochemical; settings: 70-80N hardness
# Description: Dissolution properties of the ODTs were determined by following USP 31 guidelines for each model APIs. The percent of drug released at predetermined time intervals were calculated and plotted against the sampling time to obtain the release profiles. ODTs that fall within a 70-80N hardness range were studied.
# [2] = cited from earlier work
# [3] = cited from earlier work; remark: listed apart in the source
smiles,measurement,setting,value
CC(=O)Nc1ccc(O)cc1 [Acetaminophen],time to full release of API from ODT,[1]; acetaminophen ODTs,≤ 10 min
same,pKa,[2],9.2
same,solubility in water (in words),[3],highly water soluble
CC(=O)Oc1ccccc1C(=O)O [Aspirin],solubility in water (in words),[3],highly water soluble
"CN(C)CC[C@@H](c1ccc(Cl)cc1)c1ccccn1.O=C(O)/C=C\C(=O)O [CPM, Chlorpheniramine Maleate]",time to full release of API from ODT,[1]; CPM ODTs,≤ 5 min
same,pKa,[2],9.2
COc1ccc2cc([C@H](C)C(=O)O)ccc2c1 [Naproxen],time to full release of API from ODT,[1]; naproxen ODTs,≤ 10 min
"OC[C@@H](O)[C@@H](O)[C@H](O)[C@H](O)CO [Spray dried mannitol, mannitol]",time in which 5 g dissolves in 150 mL of water,[3]; at 20° C.,approximately 5 sec
Cn1c(=O)c2nc[nH]c2n(C)c1=O [Theophylline],time to full release of API from ODT,[1]; theophylline ODTs,fully released at five minutes
same,pKa,[2],8.7
same,solubility in water,[3]; neutral distilled water at 25° C.,about 8 mg/mL
